Laboratory results taken from article PMC8418346, “Aromatic L-amino acid decarboxylase deficiency: a patient-derived neuronal model for precision therapies” (Brain, 2021).
Substitutions are numbered along the chain they refer to. Numbers in names are those of the source. Each block holds one molecule with its values, some of them ahead of it.

Assays:
[1] = target: T1, AADC (aromatic L-amino acid decarboxylase), recombinant (Homo sapiens, UniProt P20711); test: kinetic parameters of recombinant AADC (method in supplement); type: biochemical; settings: wild-type reference of the C100S comparison; main text does not state whether measured here or taken from earlier work
T1 construct: gene DDC; recombinant AADC produced in vitro; native homodimer
T1 sequence (P20711 1-480): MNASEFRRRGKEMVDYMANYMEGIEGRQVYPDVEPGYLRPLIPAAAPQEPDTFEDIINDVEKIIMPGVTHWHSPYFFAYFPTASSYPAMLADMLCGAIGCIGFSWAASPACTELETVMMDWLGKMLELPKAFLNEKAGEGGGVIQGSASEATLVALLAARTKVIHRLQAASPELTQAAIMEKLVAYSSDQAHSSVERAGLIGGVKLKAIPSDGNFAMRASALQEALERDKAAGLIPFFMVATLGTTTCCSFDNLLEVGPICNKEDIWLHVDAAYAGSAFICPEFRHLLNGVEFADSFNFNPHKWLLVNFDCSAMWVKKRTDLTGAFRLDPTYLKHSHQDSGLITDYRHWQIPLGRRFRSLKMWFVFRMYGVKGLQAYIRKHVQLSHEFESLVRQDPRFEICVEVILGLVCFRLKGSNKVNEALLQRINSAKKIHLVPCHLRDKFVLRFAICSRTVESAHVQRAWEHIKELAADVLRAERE

[2] = target: T2, AADC (aromatic L-amino acid decarboxylase), recombinant (Homo sapiens, UniProt P20711, C100S); test: PLP binding affinity of recombinant AADC (method in supplement)
T2 construct: gene DDC; recombinant AADC produced in vitro; native homodimer
T2 sequence (P20711 1-480 C100S): T1 sequence (P20711 1-480) with C100S
From the text: PLP binding affinity of recombinant AADC (method in supplement) on AADC (aromatic L-amino acid decarboxylase), recombinant | with a KD(PLP) consistently lower than previously reported values for AADC variants

[3] = substrate: N[C@@H](Cc1ccc(O)c(O)c1)C(=O)O; test: kinetic parameters of recombinant AADC (method in supplement); type: biochemical, Homo sapiens
From the text: kinetic parameters of recombinant AADC (method in supplement) on AADC (aromatic L-amino acid decarboxylase), recombinant | attributed to a slight decrease in L-DOPA affinity (KM)

Molecule: N[C@@H](Cc1ccc(O)c(O)c1)C(=O)O [L-DOPA]
- KM [1]: catalytic activity (kcat) of AADCC100S was indeed similar to that observed for wild-type

- Kd [2]: 112 ± 14 nM
Molecule: Cc1ncc(COP(=O)(O)O)c(C=O)c1O [PLP]

B1: AADC (aromatic L-amino acid decarboxylase), recombinant (Homo sapiens; C100S) (protein)
chain: T1 sequence (P20711 1-480) with C100S
notes: recombinant AADC produced in vitro; native homodimer
- Km [3]: 420 ± 100 µM
- kcat [3]: 6.9 ± 0.6 s⁻¹
